Article PMC3694096, “Development of Novel In Vivo Chemical Probes to Address CNS Protein Kinase Involvement in Synaptic Dysfunction” (PLoS ONE, 2013)

Legend:
ALK = biological target: T1, ALK (Homo sapiens, UniProt Q9UM73); test: Kinome profiler screen; assay type: biochemical; conditions: at 20,000 nM inhibitor; kinase activity remaining
T1 construct: purchased Millipore KinaseProfiler

BrSK2 = biological target: T2, BrSK2 (Homo sapiens, UniProt Q8IWQ3); test: Kinome profiler screen; assay type: biochemical; conditions: at 20,000 nM inhibitor; kinase activity remaining
T2 construct: purchased Millipore KinaseProfiler

BTK(R28H) = biological target: T3, BTK(R28H) (Homo sapiens, UniProt Q06187, R28H); test: Kinome profiler screen; assay type: biochemical; conditions: at 20,000 nM inhibitor; kinase activity remaining
T3 construct: purchased Millipore KinaseProfiler

CaMKI = biological target: T4, CaMKI (Homo sapiens, UniProt Q14012); test: Kinome profiler screen; assay type: biochemical; conditions: at 20,000 nM inhibitor; kinase activity remaining
T4 construct: purchased Millipore KinaseProfiler

CLK2 = biological target: T5, CLK2 (Homo sapiens, UniProt P49760); test: Kinome profiler screen; assay type: biochemical; conditions: at 20,000 nM inhibitor; kinase activity remaining
T5 construct: purchased Millipore KinaseProfiler

c-RAF = biological target: T6, c-RAF (Homo sapiens, UniProt P04049); test: Kinome profiler screen; assay type: biochemical; conditions: for activity at 20 µM: at 20,000 nM inhibitor, kinase activity remaining
T6 construct: purchased Millipore
T6 sequence (P04049 whole entry): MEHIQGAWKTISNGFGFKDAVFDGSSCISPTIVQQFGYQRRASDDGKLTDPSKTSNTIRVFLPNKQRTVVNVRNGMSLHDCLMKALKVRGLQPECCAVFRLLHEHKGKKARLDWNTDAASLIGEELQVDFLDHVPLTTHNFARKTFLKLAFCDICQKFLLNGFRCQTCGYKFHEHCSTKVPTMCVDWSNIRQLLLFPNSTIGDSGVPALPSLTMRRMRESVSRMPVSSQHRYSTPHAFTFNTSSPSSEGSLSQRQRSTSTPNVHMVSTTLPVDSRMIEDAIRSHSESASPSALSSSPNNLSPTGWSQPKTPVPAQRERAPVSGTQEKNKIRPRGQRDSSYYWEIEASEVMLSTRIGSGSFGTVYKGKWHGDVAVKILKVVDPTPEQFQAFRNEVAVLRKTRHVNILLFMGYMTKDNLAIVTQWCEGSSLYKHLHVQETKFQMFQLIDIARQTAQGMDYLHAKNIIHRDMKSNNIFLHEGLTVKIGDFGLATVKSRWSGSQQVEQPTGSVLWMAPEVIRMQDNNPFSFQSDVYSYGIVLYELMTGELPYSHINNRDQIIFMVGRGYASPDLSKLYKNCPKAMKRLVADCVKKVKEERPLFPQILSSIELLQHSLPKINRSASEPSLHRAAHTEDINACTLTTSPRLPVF

EGFR(L861Q) = biological target: T7, EGFR(L861Q) (Homo sapiens, UniProt P00533, L861Q); test: Kinome profiler screen; assay type: biochemical; conditions: at 20,000 nM inhibitor; kinase activity remaining
T7 construct: purchased Millipore KinaseProfiler

EGFR(T790M) = biological target: T8, EGFR(T790M) (Homo sapiens, UniProt P00533, T790M); test: Kinome profiler screen; assay type: biochemical; conditions: at 20,000 nM inhibitor; kinase activity remaining
T8 construct: purchased Millipore KinaseProfiler

EphB4 = biological target: T9, EphB4 (Homo sapiens, UniProt P54760); test: Kinome profiler screen; assay type: biochemical; conditions: at 20,000 nM inhibitor; kinase activity remaining
T9 construct: purchased Millipore KinaseProfiler

ErbB4 = biological target: T10, ErbB4 (Homo sapiens, UniProt Q15303); test: Kinome profiler screen; assay type: biochemical; conditions: at 20,000 nM inhibitor; kinase activity remaining
T10 construct: purchased Millipore KinaseProfiler

FGFR1(V561M) = biological target: T11, FGFR1(V561M) (Homo sapiens, UniProt P11362, V561M); test: Kinome profiler screen; assay type: biochemical; conditions: at 20,000 nM inhibitor; kinase activity remaining
T11 construct: purchased Millipore KinaseProfiler

FGFR4 = biological target: T12, FGFR4 (Homo sapiens, UniProt P22455); test: Kinome profiler screen; assay type: biochemical; conditions: at 20,000 nM inhibitor; kinase activity remaining
T12 construct: purchased Millipore KinaseProfiler
T12 sequence (P22455 22-802): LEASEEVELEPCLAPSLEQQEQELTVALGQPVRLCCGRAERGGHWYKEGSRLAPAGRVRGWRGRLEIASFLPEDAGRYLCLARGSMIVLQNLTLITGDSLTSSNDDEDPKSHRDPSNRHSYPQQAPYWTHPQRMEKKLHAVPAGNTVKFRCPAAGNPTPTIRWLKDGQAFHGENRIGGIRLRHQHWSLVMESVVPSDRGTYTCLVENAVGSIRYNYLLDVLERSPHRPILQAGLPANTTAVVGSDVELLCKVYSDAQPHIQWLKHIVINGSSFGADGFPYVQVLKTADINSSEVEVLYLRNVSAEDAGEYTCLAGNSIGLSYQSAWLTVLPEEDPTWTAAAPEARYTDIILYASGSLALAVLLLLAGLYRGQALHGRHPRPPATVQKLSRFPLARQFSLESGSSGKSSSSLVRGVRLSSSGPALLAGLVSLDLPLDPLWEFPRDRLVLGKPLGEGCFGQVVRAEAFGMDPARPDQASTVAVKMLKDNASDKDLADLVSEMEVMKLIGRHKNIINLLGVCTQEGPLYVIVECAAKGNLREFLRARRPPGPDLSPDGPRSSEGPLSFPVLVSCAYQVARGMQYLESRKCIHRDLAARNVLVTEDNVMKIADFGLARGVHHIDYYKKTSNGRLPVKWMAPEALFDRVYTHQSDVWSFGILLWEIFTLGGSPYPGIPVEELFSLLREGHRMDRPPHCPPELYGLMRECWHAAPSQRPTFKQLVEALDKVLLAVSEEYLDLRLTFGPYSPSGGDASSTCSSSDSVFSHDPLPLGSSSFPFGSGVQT

GCK = biological target: T13, GCK (Homo sapiens, UniProt Q12851); test: Kinome profiler screen; assay type: biochemical; conditions: at 20,000 nM inhibitor; kinase activity remaining
T13 construct: purchased Millipore KinaseProfiler

Haspin = biological target: T14, Haspin (Homo sapiens, UniProt Q8TF76); test: Kinome profiler screen; assay type: biochemical; conditions: at 20,000 nM inhibitor; kinase activity remaining
T14 construct: purchased Millipore KinaseProfiler

Hck activated = biological target: T15, Hck activated (Homo sapiens, UniProt P08631); test: Kinome profiler screen; assay type: biochemical; conditions: at 20,000 nM inhibitor; kinase activity remaining
T15 construct: purchased Millipore KinaseProfiler
T15 sequence (P08631 whole entry): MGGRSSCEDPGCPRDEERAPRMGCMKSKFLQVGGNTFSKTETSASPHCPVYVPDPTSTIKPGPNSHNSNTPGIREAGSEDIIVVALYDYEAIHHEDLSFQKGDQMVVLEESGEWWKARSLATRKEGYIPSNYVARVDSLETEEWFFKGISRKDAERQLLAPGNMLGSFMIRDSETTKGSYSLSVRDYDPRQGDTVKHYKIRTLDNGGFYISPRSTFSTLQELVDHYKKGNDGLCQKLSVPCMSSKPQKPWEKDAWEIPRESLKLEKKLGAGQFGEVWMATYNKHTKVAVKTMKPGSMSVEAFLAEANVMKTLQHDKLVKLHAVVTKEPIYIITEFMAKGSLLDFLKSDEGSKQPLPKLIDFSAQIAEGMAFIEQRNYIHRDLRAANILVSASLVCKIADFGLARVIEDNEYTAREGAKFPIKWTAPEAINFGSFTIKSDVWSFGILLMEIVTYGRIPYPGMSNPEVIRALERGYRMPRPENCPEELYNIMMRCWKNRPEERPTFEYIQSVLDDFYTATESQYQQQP

IKKα = biological target: T16, IKKα (Homo sapiens, UniProt O15111); test: Kinome profiler screen; assay type: biochemical; conditions: at 20,000 nM inhibitor; kinase activity remaining
T16 construct: purchased Millipore KinaseProfiler

IRAK1 = biological target: T17, IRAK1 (Homo sapiens, UniProt P51617); test: Kinome profiler screen; assay type: biochemical; conditions: at 20,000 nM inhibitor; kinase activity remaining
T17 construct: purchased Millipore KinaseProfiler

LKB1 = biological target: T18, LKB1 (Homo sapiens, UniProt Q15831); test: Kinome profiler screen; assay type: biochemical; conditions: at 20,000 nM inhibitor; kinase activity remaining
T18 construct: purchased Millipore KinaseProfiler

Met = biological target: T19, Met (Homo sapiens, UniProt P08581); test: Kinome profiler screen; assay type: biochemical; conditions: at 20,000 nM inhibitor; kinase activity remaining
T19 construct: purchased Millipore KinaseProfiler

MSSK1 = biological target: T20, MSSK1 (Homo sapiens, UniProt Q9UPE1); test: Kinome profiler screen; assay type: biochemical; conditions: at 20,000 nM inhibitor; kinase activity remaining
T20 construct: purchased Millipore KinaseProfiler

NEK6 = biological target: T21, NEK6 (Homo sapiens, UniProt Q9HC98); test: Kinome profiler screen; assay type: biochemical; conditions: at 20,000 nM inhibitor; kinase activity remaining
T21 construct: purchased Millipore KinaseProfiler

NEK11 = biological target: T22, NEK11 (Homo sapiens, UniProt Q8NG66); test: Kinome profiler screen; assay type: biochemical; conditions: at 20,000 nM inhibitor; kinase activity remaining
T22 construct: purchased Millipore KinaseProfiler
T22 sequence (Q8NG66 whole entry): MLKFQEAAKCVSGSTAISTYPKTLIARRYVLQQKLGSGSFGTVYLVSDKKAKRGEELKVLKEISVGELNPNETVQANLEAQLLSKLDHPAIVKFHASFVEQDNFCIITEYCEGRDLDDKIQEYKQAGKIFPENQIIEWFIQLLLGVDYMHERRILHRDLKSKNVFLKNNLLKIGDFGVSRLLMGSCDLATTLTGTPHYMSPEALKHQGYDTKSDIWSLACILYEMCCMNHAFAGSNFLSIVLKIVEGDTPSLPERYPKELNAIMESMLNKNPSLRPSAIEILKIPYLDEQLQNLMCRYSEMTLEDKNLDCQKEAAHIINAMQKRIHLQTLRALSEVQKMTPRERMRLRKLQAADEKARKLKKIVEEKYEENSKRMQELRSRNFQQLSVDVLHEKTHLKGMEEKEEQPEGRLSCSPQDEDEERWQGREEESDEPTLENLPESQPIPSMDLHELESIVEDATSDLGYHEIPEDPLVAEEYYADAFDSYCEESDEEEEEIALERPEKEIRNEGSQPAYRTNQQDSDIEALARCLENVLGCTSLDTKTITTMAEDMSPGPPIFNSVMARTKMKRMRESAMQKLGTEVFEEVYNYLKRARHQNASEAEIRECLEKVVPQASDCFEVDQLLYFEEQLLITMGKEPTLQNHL

p70S6K = biological target: T23, p70S6K (Homo sapiens, UniProt P23443); test: Kinome profiler screen; assay type: biochemical; conditions: at 20,000 nM inhibitor; kinase activity remaining
T23 construct: purchased Millipore KinaseProfiler

PAK2 = biological target: T24, PAK2 (Homo sapiens, UniProt Q13177); test: Kinome profiler screen; assay type: biochemical; conditions: at 20,000 nM inhibitor; kinase activity remaining
T24 construct: purchased Millipore KinaseProfiler

[1] = biological target: T25, PI3 Kinase (p110α (E542K)/p85α) (Homo sapiens, UniProt P42336, E542K); test: Kinome profiler screen; assay type: biochemical; conditions: at 20,000 nM inhibitor; kinase activity remaining
T25 construct: purchased Millipore KinaseProfiler
T25 sequence (P42336 whole entry E542K): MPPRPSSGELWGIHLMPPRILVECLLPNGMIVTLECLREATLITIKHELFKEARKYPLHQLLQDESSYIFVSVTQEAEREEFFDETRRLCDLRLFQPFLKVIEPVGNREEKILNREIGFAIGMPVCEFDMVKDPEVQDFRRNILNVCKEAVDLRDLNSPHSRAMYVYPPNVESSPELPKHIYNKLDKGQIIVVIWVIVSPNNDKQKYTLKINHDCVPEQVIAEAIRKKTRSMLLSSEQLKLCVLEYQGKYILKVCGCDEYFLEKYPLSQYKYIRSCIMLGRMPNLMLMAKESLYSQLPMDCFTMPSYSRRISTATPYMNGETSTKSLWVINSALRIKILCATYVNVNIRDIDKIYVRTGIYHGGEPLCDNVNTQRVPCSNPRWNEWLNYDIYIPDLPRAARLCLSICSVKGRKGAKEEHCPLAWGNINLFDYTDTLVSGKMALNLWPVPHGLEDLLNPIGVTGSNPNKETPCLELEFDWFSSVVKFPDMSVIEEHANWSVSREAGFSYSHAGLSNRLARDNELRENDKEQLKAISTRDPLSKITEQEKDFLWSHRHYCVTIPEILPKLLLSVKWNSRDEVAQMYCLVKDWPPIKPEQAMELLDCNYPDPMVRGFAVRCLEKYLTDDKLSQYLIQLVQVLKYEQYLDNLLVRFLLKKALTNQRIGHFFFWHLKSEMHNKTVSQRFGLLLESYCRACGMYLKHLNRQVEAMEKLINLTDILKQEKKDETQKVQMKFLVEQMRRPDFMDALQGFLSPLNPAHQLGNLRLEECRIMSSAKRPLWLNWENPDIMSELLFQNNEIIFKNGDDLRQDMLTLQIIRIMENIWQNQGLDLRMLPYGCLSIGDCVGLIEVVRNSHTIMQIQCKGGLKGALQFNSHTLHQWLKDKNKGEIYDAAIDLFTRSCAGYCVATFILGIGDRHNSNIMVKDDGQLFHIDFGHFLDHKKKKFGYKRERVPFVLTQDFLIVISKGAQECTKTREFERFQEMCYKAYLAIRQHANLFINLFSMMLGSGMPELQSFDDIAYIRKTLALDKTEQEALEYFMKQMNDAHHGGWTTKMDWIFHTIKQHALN
T25 sequence (P27986 whole entry partner): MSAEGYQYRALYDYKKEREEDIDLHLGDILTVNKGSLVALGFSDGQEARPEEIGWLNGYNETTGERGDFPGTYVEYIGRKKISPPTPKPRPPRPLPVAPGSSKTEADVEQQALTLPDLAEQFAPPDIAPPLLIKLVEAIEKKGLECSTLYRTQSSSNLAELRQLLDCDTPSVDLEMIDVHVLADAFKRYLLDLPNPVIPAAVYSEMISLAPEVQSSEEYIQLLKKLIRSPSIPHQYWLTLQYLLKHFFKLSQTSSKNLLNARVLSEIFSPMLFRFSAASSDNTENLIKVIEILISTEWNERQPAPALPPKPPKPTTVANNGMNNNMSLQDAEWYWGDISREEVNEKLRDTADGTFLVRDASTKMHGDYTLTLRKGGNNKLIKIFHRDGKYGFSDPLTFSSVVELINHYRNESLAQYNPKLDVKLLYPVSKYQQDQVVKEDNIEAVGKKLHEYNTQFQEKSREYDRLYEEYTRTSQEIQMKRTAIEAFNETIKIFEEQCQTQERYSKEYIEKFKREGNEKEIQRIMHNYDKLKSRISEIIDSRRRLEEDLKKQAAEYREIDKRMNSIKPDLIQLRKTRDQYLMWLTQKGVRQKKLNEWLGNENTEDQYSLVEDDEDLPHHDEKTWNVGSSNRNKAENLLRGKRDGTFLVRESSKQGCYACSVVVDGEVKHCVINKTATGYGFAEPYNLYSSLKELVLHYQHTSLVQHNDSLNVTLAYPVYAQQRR

Pim-2 = biological target: T26, Pim-2 (Homo sapiens, UniProt Q9P1W9); test: Kinome profiler screen; assay type: biochemical; conditions: at 20,000 nM inhibitor; kinase activity remaining
T26 construct: purchased Millipore KinaseProfiler

PKCβI = biological target: T27, PKCβI (Homo sapiens, UniProt P05771); test: Kinome profiler screen; assay type: biochemical; conditions: at 20,000 nM inhibitor; kinase activity remaining
T27 construct: purchased Millipore KinaseProfiler

PKCγ = biological target: T28, PKCγ (Homo sapiens, UniProt P05129); test: Kinome profiler screen; assay type: biochemical; conditions: at 20,000 nM inhibitor; kinase activity remaining
T28 construct: purchased Millipore KinaseProfiler

Plk3 = biological target: T29, Plk3 (Homo sapiens, UniProt Q9H4B4); test: Kinome profiler screen; assay type: biochemical; conditions: at 20,000 nM inhibitor; kinase activity remaining
T29 construct: purchased Millipore KinaseProfiler

Rsk3 = biological target: T30, Rsk3 (Homo sapiens, UniProt Q15349); test: Kinome profiler screen; assay type: biochemical; conditions: at 20,000 nM inhibitor; kinase activity remaining
T30 construct: purchased Millipore KinaseProfiler

Rsk4 = biological target: T31, Rsk4 (Homo sapiens, UniProt Q9UK32); test: Kinome profiler screen; assay type: biochemical; conditions: at 20,000 nM inhibitor; kinase activity remaining
T31 construct: purchased Millipore KinaseProfiler

TAO3 = biological target: T32, TAO3 (Homo sapiens, UniProt Q9H2K8); test: Kinome profiler screen; assay type: biochemical; conditions: at 20,000 nM inhibitor; kinase activity remaining
T32 construct: purchased Millipore KinaseProfiler

Txk = biological target: T33, Txk (Homo sapiens, UniProt P42681); test: Kinome profiler screen; assay type: biochemical; conditions: at 20,000 nM inhibitor; kinase activity remaining
T33 construct: purchased Millipore KinaseProfiler
T33 sequence (P42681 whole entry): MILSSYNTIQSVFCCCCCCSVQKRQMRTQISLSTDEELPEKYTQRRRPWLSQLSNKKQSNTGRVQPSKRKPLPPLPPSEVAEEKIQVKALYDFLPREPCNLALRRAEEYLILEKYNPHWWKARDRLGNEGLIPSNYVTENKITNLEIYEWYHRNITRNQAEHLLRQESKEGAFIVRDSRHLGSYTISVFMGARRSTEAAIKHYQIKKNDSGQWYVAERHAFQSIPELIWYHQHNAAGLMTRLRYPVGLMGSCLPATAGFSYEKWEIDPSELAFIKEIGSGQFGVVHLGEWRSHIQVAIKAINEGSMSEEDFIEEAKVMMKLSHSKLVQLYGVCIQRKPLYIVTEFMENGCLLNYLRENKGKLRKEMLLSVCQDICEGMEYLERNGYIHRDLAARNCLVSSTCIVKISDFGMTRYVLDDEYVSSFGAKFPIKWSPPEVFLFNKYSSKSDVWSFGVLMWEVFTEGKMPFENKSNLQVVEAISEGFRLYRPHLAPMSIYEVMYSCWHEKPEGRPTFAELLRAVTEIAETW

Chemical stability = assay type: physicochemical
Experimental: Aqueous solubility (logS) and chemical stability were determined as previously described. Briefly, solutions for aqueous solubility (log S) determination were made by gravimetric methods using a Sartorius AG (Germany) BP 211 D analytical balance. Dry borosilicate capillary tubes (Büchi, Switzerland) were weighed and various amounts of compound (ranging from 1.2–1.5 mg) or the hydrochloride hydrate form (ranging from 10–20 mg) were added to the tared tubes, then water added to create solutions ranging in concentrations from […]. Tubes containing the samples were mixed to ensure wetting and incubated at 37°C for 24 h. Aliquots were collected from each tube, centrifuged at 12,000 g-min, and analyzed by HPLC. Concentrations were calculated using area under the peak (260 nm) at the appropriate retention time relative to a standard curve obtained from serial dilutions of each purified compound. […]. The co-solvent was methanol, experimental pH range was 1.7–10.0, temperature was 22±2°C, ionic strength was 0.15 M KCl. Five titrations were used to calculate the pKa using the Yasuda-Shedlovsky technique. […].

| SMILES | activity at 20 µM (ALK) | activity at 20 µM (BrSK2) | activity at 20 µM (BTK(R28H)) | activity at 20 µM (CaMKI) | activity at 20 µM (CLK2) | activity at 20 µM (c-RAF) | activity at 20 µM (EGFR(L861Q)) | activity at 20 µM (EGFR(T790M)) | activity at 20 µM (EphB4) | activity at 20 µM (ErbB4) | activity at 20 µM (FGFR1(V561M)) | activity at 20 µM (FGFR4) | activity at 20 µM (GCK) | activity at 20 µM (Haspin) | activity at 20 µM (Hck activated) | activity at 20 µM (IKKα) | activity at 20 µM (IRAK1) | activity at 20 µM (LKB1) | activity at 20 µM (Met) | activity at 20 µM (MSSK1) | also measured |
| --- | --- | --- | --- | --- | --- | --- | --- | --- | --- | --- | --- | --- | --- | --- | --- | --- | --- | --- | --- | --- | --- |
| CN(C)c1cc(-c2ccncc2)c(-c2cccc3ccccc23)nn1 [MW181, N,N-dimethyl-6-(naphthalen-1-yl)-5-(pyridin-4-yl)pyridazin-3-amine] | 107% | 105% | 96% | 101% | 98% | 70% | 56% | 105% | 100% | 78% | 93% | 98% | 101% | 93% | 106% | 112% | 102% | 100% | 112% | 100% | activity at 20 µM (NEK6): 92%; activity at 20 µM (NEK11): 121%; activity at 20 µM (p70S6K): 94%; activity at 20 µM (PAK2): 101%; activity at 20 µM [1]: 100%; activity at 20 µM (Pim-2): 103%; activity at 20 µM (PKCβI): 104%; activity at 20 µM (PKCγ): 96%; activity at 20 µM (Plk3): 92%; activity at 20 µM (Rsk3): 114%; activity at 20 µM (Rsk4): 105%; activity at 20 µM (TAO3): 88%; activity at 20 µM (Txk): 98%; Chemical Stability (37ºC; 24 hrs) (Chemical stability; neutral, base (pH 13), acid (pH 2)): stable in neutral, base (pH 13), acid (pH 2) |
| CN(C)c1cc(-c2ccncc2)c(-c2ccc3ccccc3c2)nn1 [MW108, N, N-dimethyl-6-(naphthalen-2-yl)-5-(pyridin-4-yl)pyridazin-3-amine] | 105% | 88% | 101% | 101% | 103% | 27% | 49% | 68% | 54% | 52% | 90% | 89% | 101% | 87% | 97% | 105% | 97% | 102% | 118% | 86% | IC50 (c-RAF): 9.12 µM; activity at 20 µM (NEK6): 103%; activity at 20 µM (NEK11): 108%; activity at 20 µM (p70S6K): 92%; activity at 20 µM (PAK2): 103%; activity at 20 µM [1]: 99%; activity at 20 µM (Pim-2): 93%; activity at 20 µM (PKCβI): 92%; activity at 20 µM (PKCγ): 93%; activity at 20 µM (Plk3): 103%; activity at 20 µM (Rsk3): 83%; activity at 20 µM (Rsk4): 96%; activity at 20 µM (TAO3): 73%; activity at 20 µM (Txk): 98%; Chemical Stability (37ºC; 24 hrs) (Chemical stability; 24 h, 0.0015 M): stable in neutral, base (pH 13), acid (pH 2) |
